Measured values taken from publication PMC11243256 (Molecules, 2024).
Like-named read-outs stand apart in the source and are kept apart here.

Columns and labels:
Assay in all cases: microscale thermophoresis
Assay type in all cases: binding
[1] = biological target: T1, PYL6 (Arabidopsis thaliana, UniProt Q8S8E3)
T1 construct: NT-647-NHS labelled
T1 sequence (Q8S8E3 1-215): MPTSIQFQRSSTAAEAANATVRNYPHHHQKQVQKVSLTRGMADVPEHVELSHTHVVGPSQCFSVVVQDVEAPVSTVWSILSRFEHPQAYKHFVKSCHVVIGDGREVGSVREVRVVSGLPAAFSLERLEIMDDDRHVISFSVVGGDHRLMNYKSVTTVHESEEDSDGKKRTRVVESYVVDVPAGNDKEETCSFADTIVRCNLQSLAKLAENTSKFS
Source text: microscale thermophoresis on PYL6

[2] = biological target: T2, PYR1 (Arabidopsis thaliana, UniProt O49686)
T2 construct: NT-647-NHS labelled; 'dimer PYR1' in the docking section
T2 sequence (O49686 1-191): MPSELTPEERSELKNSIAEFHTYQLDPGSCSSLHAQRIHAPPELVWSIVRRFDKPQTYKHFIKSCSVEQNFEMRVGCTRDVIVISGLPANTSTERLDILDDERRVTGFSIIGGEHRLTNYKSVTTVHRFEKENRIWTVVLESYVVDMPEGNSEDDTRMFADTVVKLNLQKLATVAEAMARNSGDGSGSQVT
Source text: microscale thermophoresis on PYR1

[3] = biological target: T3, PYL3 (Arabidopsis thaliana, UniProt Q9SSM7)
T3 construct: NT-647-NHS labelled
T3 sequence (Q9SSM7 1-209): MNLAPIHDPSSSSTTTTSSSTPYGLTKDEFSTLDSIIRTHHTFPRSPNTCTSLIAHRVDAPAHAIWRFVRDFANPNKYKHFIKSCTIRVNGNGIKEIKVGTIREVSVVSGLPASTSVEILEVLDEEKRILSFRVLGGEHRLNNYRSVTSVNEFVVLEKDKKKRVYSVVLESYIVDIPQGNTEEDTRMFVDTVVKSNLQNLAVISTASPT

[4] = biological target: T4, PYL10 (Arabidopsis thaliana, UniProt Q8H1R0)
T4 construct: NT-647-NHS labelled; 'monomer PYL10' in the docking section
T4 sequence (Q8H1R0 1-183): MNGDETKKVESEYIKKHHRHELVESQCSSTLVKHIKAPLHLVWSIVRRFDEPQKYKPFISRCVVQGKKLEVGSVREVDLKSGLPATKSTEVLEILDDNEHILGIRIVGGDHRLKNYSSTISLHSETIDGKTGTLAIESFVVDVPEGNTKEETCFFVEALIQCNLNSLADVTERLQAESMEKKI
Source text: microscale thermophoresis on PYL10

[5] = biological target: T5, PYL2 (Arabidopsis thaliana, UniProt O80992)
T5 construct: NT-647-NHS labelled
T5 sequence (O80992 1-190): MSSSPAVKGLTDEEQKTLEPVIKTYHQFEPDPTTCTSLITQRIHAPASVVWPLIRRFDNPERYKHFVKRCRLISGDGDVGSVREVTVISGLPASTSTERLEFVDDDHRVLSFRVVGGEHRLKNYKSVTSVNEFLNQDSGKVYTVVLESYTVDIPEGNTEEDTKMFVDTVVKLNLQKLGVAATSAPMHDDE
Source text: microscale thermophoresis on PYL2

[6] = PBS, NT-647-NHS-labelled receptor

Compound	Kd [1] [µM]	Kd [2] [µM]	Kd [3] [µM]	Kd [4] [µM]	Kd [5] [µM]	Kd [1, 6] [µM]	Kd [2, 6] [µM]	Kd [3, 6] [µM]	Kd [4, 6] [µM]	Kd [5, 6] [µM]
CCCCCCOc1ccc2c(c1)C(=O)C(C)(C)CC2(O)/C=C/C(C)=C\C(=O)O (centres unmarked) [APA6]	1.62 ± 0.17	121 ± 13.6	4.09 ± 0.65	44.9 ± 8.09	2.91 ± 0.17					
CC(=C/C(=O)O)/C=C/C1(O)CC(C)(C)C(=O)c2cc(OCCCCc3ccccc3)ccc21 (centres unmarked) [APA11]	0.9 ± 0.22	59.4 ± 3.41	3.11 ± 0.4	17.6 ± 2.11	0.46 ± 0.09					
CC(=C/C(=O)O)/C=C/C1(O)CC(C)(C)C(=O)c2cc(OCCC(C)CC(C)(C)C)ccc21 (centres unmarked) [APA14]	2.55 ± 0.46	60.8 ± 9.02	5.18 ± 0.84	45.5 ± 2.47	0.11 ± 0.01					
CC(=C/C(=O)O)/C=C/C1(O)CC(C)(C)C(=O)c2cc(OCCC(C)CCCC(C)C)ccc21 (centres unmarked) [APA15]	1.99 ± 0.32	37.9 ± 3.09	7.95 ± 1.66	36.3 ± 2.18	2.04 ± 0.29					
CC(C)=CCCC(C)CCOc1ccc2c(c1)C(=O)C(C)(C)CC2(O)/C=C/C(C)=C\C(=O)O (centres unmarked) [APA16]	2.1 ± 0.31	53.4 ± 4.71	7.84 ± 0.95	65 ± 2.76	5.84 ± 0.24					
CCOCCOc1ccc2c(c1)C(=O)C(C)(C)CC2(O)/C=C/C(C)=C\C(=O)O (centres unmarked) [APA17]	13.1 ± 1.46	42.2 ± 6.71	19 ± 2.1	23.9 ± 2.68	7.07 ± 0.21					
COCCOCCOc1ccc2c(c1)C(=O)C(C)(C)CC2(O)/C=C/C(C)=C\C(=O)O (centres unmarked) [APA18]	4.17 ± 0.93	73.9 ± 5.28	9.33 ± 1.39	37.5 ± 2.83	0.14 ± 0.02					
CC1=CC(=O)CC(C)(C)[C@@]1(O)/C=C/C(C)=C\C(=O)O [compound 1, ABA]	19.5 ± 3.92	188 ± 29		152 ± 31	16.2 ± 4.84					
iso-PhABA						6.77 ± 0.32	187 ± 22.3	16.3 ± 2.78	92 ± 5.13	7.54 ± 2.36
